Experimental data published in PubChem BioAssay (NCI).
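Dose response: 5 concentrations. Exposure: 48 h. Format: 96-well plates. Endpoint: linear interpolation; highest concentration if not reached. Here, GI50 denotes the concentration required for 50% inhibition of growth. TGI marks complete inhibition of growth.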

Key:
Assay in all cases: DTP human tumour cell line panel, 48 h
HCT-116 colon = system: HCT-116 colon
OVCAR-8 ovarian = system: OVCAR-8 ovarian
SNB-75 CNS = system: SNB-75 CNS
SW-620 colon = system: SW-620 colon
SF-539 CNS = system: SF-539 CNS
SF-268 CNS = system: SF-268 CNS
SK-OV-3 ovarian = system: SK-OV-3 ovarian
LOX IMVI melanoma = system: LOX IMVI melanoma
MALME-3M melanoma = system: MALME-3M melanoma
SN12C renal = system: SN12C renal

| SMILES | TGI (HCT-116 colon) [µM] | TGI (OVCAR-8 ovarian) [µM] | TGI (SNB-75 CNS) [µM] | TGI (SW-620 colon) [µM] | TGI (SF-539 CNS) [µM] | TGI (SF-268 CNS) [µM] | TGI (SK-OV-3 ovarian) [µM] | TGI (LOX IMVI melanoma) [µM] | TGI (MALME-3M melanoma) [µM] | TGI (SN12C renal) [µM] | GI50 (HCT-116 colon) [µM] | GI50 (OVCAR-8 ovarian) [µM] | GI50 (SNB-75 CNS) [µM] | GI50 (SW-620 colon) [µM] | GI50 (SF-539 CNS) [µM] | GI50 (SF-268 CNS) [µM] | GI50 (SK-OV-3 ovarian) [µM] | GI50 (LOX IMVI melanoma) [µM] | GI50 (MALME-3M melanoma) [µM] | GI50 (SN12C renal) [µM] |
| --- | --- | --- | --- | --- | --- | --- | --- | --- | --- | --- | --- | --- | --- | --- | --- | --- | --- | --- | --- | --- |
| CCOC(=O)Cc1nc2ccc3c(c2[nH]c1=O)C(=O)c1ccccc1C3=O | > 100 | > 100 | > 100 | > 100 | > 100 | > 100 | > 100 | > 100 | > 100 | > 100 |  |  |  |  |  |  |  |  |  |  |
| COC(=O)/C(=N\NC(C)(C)C)C(C(=O)OC)C(=O)C(=O)Nc1cc(Cl)ccc1Cl (stereo not given) | > 100 | > 100 | > 100 | > 100 | > 100 | > 100 | > 100 | > 100 | > 100 | > 100 |  |  |  |  |  |  |  |  |  |  |
| Cc1c(/C=N/NC(=O)c2ccccc2O)c(=O)n(-c2ccccc2)n1C | > 100 | > 100 | > 100 | > 100 | > 100 | > 100 | > 100 | > 100 | > 100 | > 100 |  |  |  |  |  |  |  |  |  |  |
| CC(CO)Nc1cc(-c2[nH]c3cccnc3c2-c2ccc(F)cc2)ccn1 (stereo not given) | > 25 | > 25 | > 25 | > 25 | > 25 | > 25 | > 25 | > 25 | > 25 | > 25 | 13.4 | 15.7 | 14.8 | 20.3 | > 25 | 16.7 | 15 | 13.7 | 16.9 | 15.1 |
| COc1ccc2nccc(C3=CCC4CCN(C(=O)c5ccccc5)C3C4)c2c1 (stereo not given) | > 100 | > 100 | > 100 | > 100 | > 100 | > 100 | > 100 | > 100 | > 100 | > 100 |  |  |  |  |  |  |  |  |  |  |
| O=C(Nc1cccc(Cl)c1)Nn1cnnc1 | > 100 | > 100 | > 100 | > 100 | > 100 | > 100 | > 100 | > 50 | > 100 | > 100 | > 50 | > 50 | > 50 | > 50 | > 50 | > 50 | > 50 | > 50 | > 50 | > 50 |
| C=CCc1c(Cl)nc(Cl)nc1Cl | 1.18 | 1.32 | 5.87 | 0.583 | 3.78 | 14.4 | 9.12 | 0.344 | 1.47 | 1.46 |  |  |  |  |  |  |  |  |  |  |
| Nc1ncnc2c1ncn2C1OC(CSCC(F)(F)F)C(O)C1O (stereo not given) | > 100 | > 100 | > 100 | > 100 | > 100 | > 100 | > 100 | > 100 | > 100 | > 100 |  |  |  |  |  |  |  |  |  |  |
